# Target: T1, PARP-1 (Homo sapiens, UniProt P09874)
# T1 construct: gene PARP1
# Assay: PARP-1 colorimetric assay kit (BPS Bioscience […])
# Format: biochemical
# T1 sequence (P09874 2-1014): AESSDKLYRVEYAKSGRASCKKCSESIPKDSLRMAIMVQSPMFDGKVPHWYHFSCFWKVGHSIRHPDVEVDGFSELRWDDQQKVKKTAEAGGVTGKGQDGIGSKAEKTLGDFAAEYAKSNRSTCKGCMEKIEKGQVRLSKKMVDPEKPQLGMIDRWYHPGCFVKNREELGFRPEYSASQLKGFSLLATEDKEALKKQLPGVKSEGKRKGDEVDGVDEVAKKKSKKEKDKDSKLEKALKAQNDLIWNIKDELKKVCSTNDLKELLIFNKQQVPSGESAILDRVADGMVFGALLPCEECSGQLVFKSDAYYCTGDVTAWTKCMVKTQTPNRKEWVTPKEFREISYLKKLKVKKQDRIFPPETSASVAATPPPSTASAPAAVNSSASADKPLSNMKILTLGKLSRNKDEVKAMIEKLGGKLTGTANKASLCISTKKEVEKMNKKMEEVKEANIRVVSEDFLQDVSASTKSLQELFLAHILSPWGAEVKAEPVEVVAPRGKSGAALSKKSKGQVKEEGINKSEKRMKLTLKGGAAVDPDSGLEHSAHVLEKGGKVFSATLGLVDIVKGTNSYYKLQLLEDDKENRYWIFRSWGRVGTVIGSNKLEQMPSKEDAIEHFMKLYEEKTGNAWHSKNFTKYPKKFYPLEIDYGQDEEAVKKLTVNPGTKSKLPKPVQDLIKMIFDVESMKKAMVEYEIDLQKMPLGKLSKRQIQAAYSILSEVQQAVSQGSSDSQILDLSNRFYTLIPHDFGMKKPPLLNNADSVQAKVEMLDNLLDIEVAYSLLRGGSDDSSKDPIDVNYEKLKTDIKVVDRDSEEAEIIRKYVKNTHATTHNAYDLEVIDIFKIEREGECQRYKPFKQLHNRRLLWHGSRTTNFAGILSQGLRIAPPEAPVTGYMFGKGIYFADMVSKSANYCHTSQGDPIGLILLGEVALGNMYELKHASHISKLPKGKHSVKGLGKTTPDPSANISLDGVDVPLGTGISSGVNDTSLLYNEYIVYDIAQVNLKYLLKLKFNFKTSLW
compound,measurement,value
C/C=C(/C)C(=O)OC1=C(C(C)CCC=C(C)C)C(=O)C=C(C)C1=O (stereo not shown) [perezone angelate],IC50,5.25 µM

# Reference: article PMC8911992, “In Vitro and Computational Studies of Perezone and Perezone Angelate as Potential Anti-Glioblastoma Multiforme Agents” (Molecules, 2022)
